Structures can show the parent of a compound that is named as a salt.
Each molecule was assayed on IL-2 secretion by Jurkat T cells (assay: Inhibition of IL-2 secretion (PHA-stimulated Jurkat T cells, ELISA)). Settings: Homo sapiens, 20 to 24 hours.
Format: cell-based
Description: The CRAC channel modulatory activity of the compounds were thus evaluated by measuring the secretion of IL-2 by antigen stimulated T-cells in vitro. Alternatively, such activity can also be evaluated by assay methods known to one skilled in the art.
Inhibition of IL-2 secretion: Jurkat T cells were seeded at a density of 0.5 to 1 million cells per well in RPMI medium. Test compounds from this invention were added to the cells at different concentrations. This was followed by the addition of PHA, a T cell mitogen after 10 minutes. The cells were then incubated for 20 to 24 hours in a CO2 incubator at 37° C. After incubation with the compounds, cells were centrifuged; the supernatant was collected and processed for ELISA to quantitate the amount of IL-2 secreted. A commercial ELISA kit (R&D Systems, Inc. Minneapolis, Minn., USA) was used to estimate the IL-2 concentrations. Amount of IL-2 secreted by cells stimulated with PHA was considered as a 100% maximal signal and the decrease in amount of IL-2 secreted by cells treated with the test compounds was expressed as percent inhibition of the maximal signal. The dose response data was analyzed using 4-parametric sigmoidal dose response (variable slope) curve-fit.
In the case of CC1(C)C=C(c2cnc(NC(=O)c3c(F)cccc3F)cn2)c2ccccc2O1 [Example 81, N-(5-(2,2-Dimethyl-2H-chromen-4-yl)pyrazin-2-yl)-2,6-difluorobenzamide], the IC50 was 50 to 100 nM. Cc1cc2c(cc1-c1ccc(NC(=O)c3c(F)cccc3F)cc1)OC1(CNC1)CC2=O [Example 120, 2,6-Difluoro-N-(4-(6′-methyl-4′-oxospiro[azetidine-3,2′-chroman]-7′-yl)phenyl)benzamide hydrochloride] showed an IC50 of 50 to 100 nM. With Cc1cc2c(cc1-c1ccc(NC(=O)c3c(F)cccc3F)cc1)OC1(CCC1)CC2=O [Example 16, 2,6-Difluoro-N-(4-(6-methyl-4-oxospiro[chroman-2,1′-cyclobutan]-7-yl)phenyl)benzamide] the IC50 was under 25 nM. Cc1cc2c(cc1-c1ccc(NC(=O)c3c(F)cccc3Cl)cc1)OC1(CCC1)CC2=O [Example 11, 2-Chloro-6-fluoro-N-(4-(6-methyl-4-oxospiro[chroman-2,1′-cyclobutan]-7-yl)phenyl)benzamide] showed an IC50 of 25 to 50 nM. Molecule Cc1ccc2c(c1)C(c1ccc(NC(=O)c3c(F)cccc3F)cc1)=CC1(CCC1)O2 [Example 75, 2,6-Difluoro-N-(4-(6-methylspiro[chromene-2,l′-cyclobutan]-4-yl)phenyl)benzamide] has an IC50 of under 25 nM. For Cc1cccc2c1OC1(C=C2c2ccc(C(=O)Nc3c(F)cncc3F)cc2)CCC1 [Example 111, N-(3,5-Difluoropyridin-4-yl)-4-(8-methylspiro[chromene-2,1′-cyclobutan]-4-yl)benzamide], the IC50 was 25 to 50 nM. CCc1cc2c(cc1-c1ccc(NC(=O)c3c(F)cccc3F)cc1)OC(C)(C)CC2=O [Example 2, N-(4-(6-Ethyl-2,2-dimethyl-4-oxochroman-7-yl)phenyl)-2,6-difluorobenzamide] was tested, and the IC50 was under 25 nM. Cc1cc2c(cc1-c1ccc(NC(=O)c3c(F)cccc3F)nc1)OC(C)(C)CC2=O [Example 6] gave an IC50 of 25 to 50 nM. In the case of CCc1cc2c(cc1-c1ccc(NC(=O)c3c(F)cccc3F)cc1)OC1(CCC1)CC2=O [Example 20, N-(4-(6-Ethyl-4-oxospiro[chroman-2,1′-cyclobutan]-7-yl)phenyl)-2,6-difluorobenzamide], the IC50 was under 25 nM. CCc1cc2c(cc1-c1ccc(NC(=O)c3c(F)cccc3F)cc1)OC(C)(CO)CC2=O (stereo not drawn) [Example 58, N-(4-(6-Ethyl-2-(hydroxymethyl)-2-methyl-4-oxochroman-7-yl)phenyl)-2,6-difluorobenzamide] showed an IC50 of 50 to 100 nM. COCC1(C)C=C(c2ccc(NC(=O)c3c(F)cccc3F)cn2)c2cccc(C)c2O1 (stereo not drawn) [Example 105, 2,6-Difluoro-N-(6-(2-(methoxymethyl)-2,8-dimethyl-2H-chromen-4-yl)pyridin-3-yl)benzamide] showed an IC50 of 100 to 500 nM. COCC1(C)C=C(c2ccc(NC(=O)c3c(F)cccc3F)nc2)c2cccc(C)c2O1 (stereo not drawn) [Example 104, 2,6-Difluoro-N-(5-(2-(methoxymethyl)-2,8-dimethyl-2H-chromen-4-yl)pyridin-2-yl)benzamide] gave an IC50 of under 25 nM. With Cc1cc2c(cc1-c1cnc(NC(=O)c3c(F)cccc3F)cn1)OC(C)(C)CC2=O [Example 4, 2,6-Difluoro-N-(5-(2,2,6-trimethyl-4-oxochroman-7-yl)pyrazin-2-yl)benzamide] the IC50 was under 25 nM. In the case of Cc1cc2c(cc1-c1ccc(NC(=O)c3c(F)cccc3F)cc1)CCC1(CCC1)O2 [Example 18, 2,6-Difluoro-N-(4-(7-methylspiro[chroman-2,1′-cyclobutan]-6-yl)phenyl)benzamide], the IC50 was 50 to 100 nM. In the case of Cc1cccc2c1OC(C)(C)C=C2c1ccc(NC(=O)c2c(F)cccc2F)nc1 [Example 98, 2,6-Difluoro-N(5-(2,2,8-trimethyl-2H-chromen-4-yl)pyridin-2-yl)benzamide], the IC50 was 25 to 50 nM. Work on Cc1cc2c(cc1-c1ccc(NCc3c(F)cccc3F)nc1)OC1(CCC1)CC2=O [Example 39, 7-(6-((2,6-Difluorobenzyl)amino)pyridin-3-yl)-6-methylspiro[chroman-2,1′-cyclobutan]-4-one] yielded an IC50 of under 25 nM. In the case of CCc1cc2c(cc1-c1ccc(NC(=O)c3c(F)cccc3F)cc1)OC1(CCC1)CC2 [Example 24, N-(4-(6-Ethylspiro[chroman-2,1′-cyclobutan]-7-yl)phenyl)-2,6-difluorobenzamide], the IC50 was under 25 nM. Molecule COCC1(C)C=C(c2ccc(NC(=O)c3c(F)cccc3F)cc2)c2ccccc2O1 (stereo not drawn) [Example 90] has an IC50 of 25 to 50 nM. CCc1cc2c(cc1-c1ccc(NC(=O)c3c(F)cccc3F)cc1)OC(C)(C)CC2 [Example 48b, N-(4-(6-Ethyl-2,2-dimethylchroman-7-yl)phenyl)-2,6-difluorobenzamide] showed an IC50 of under 25 nM. In the case of Cc1cc2c(cc1-c1ccc(C(=O)Nc3c(F)cncc3F)cc1)OC1(CCC1)CC2=O [Example 64, N-(3,5-Difluoropyridin-4-yl)-4-(6-methyl-4-oxospiro[chroman-2,1′-cyclobutan]-7-yl)benzamide], the IC50 was under 25 nM. In the case of Cc1cc2c(cc1-c1cnc(NC(=O)c3c(F)cccc3F)cn1)OC1(CCC1)CC2=O [Example 36, 2,6-Difluoro-N-(5-(6-methyl-4-oxospiro[chroman-2,1′-cyclobutan]-7-yl)pyrazin-2-yl)benzamide], the IC50 was under 25 nM. With Cc1cccc2c1OC1(C=C2c2cnc(NC(=O)c3c(F)cccc3F)cn2)CCC1 [Example 100, 2,6-Difluoro-N-(5-(8-methylspiro[chromene-2,1′-cyclobutan]-4-yl)pyrazin-2-yl)benzamide] the IC50 was under 25 nM. In the case of Cc1cc2c(cc1-c1ccc(C(=O)Nc3c(F)cncc3F)cc1)OC1(CCC1)CC2 [Example 66, N-(3,5-Difluoropyridin-4-yl)-4-(6-methylspiro[chroman-2,1′-cyclobutan]-7-yl)benzamide], the IC50 was under 25 nM. In the case of COCC1(C)C=C(c2ccc(NC(=O)c3c(F)cccc3F)cc2)c2cc(C)ccc2O1 (stereo not drawn) [Example 91], the IC50 was 25 to 50 nM. Molecule Cc1cccc2c1OC1(C=C2c2ccc(NC(=O)c3c(F)cccc3F)nc2)CCC1 [Example 101, 2,6-Difluoro-N-(5-(8-methylspiro[chromene-2,1′-cyclobutan]-4-yl)pyridin-2-yl)benzamide] has an IC50 of under 25 nM. For CCc1cc2c(cc1-c1ccc(C(=O)Nc3c(F)cncc3F)cc1)OC(C)(C)CC2 [Example 49, N-(3,5-Difluoropyridin-4-yl)-4-(6-ethyl-2,2-dimethylchroman-7-yl)benzamide], the IC50 was under 25 nM. Cc1cc2c(cc1-c1ccc(C(=O)Nc3c(F)cccc3F)cc1)OC1(CCC1)CC2 [Example 116, N-(2,6-Difluorophenyl)-4-(6-methylspiro[chroman-2,1′-cyclobutan]-7-yl)benzamide] was tested, and the IC50 was 25 to 50 nM. Work on Cc1cc2c(cc1-c1ccc(C(=O)Nc3c(F)cncc3F)cc1)OC(C)(C)CC2 [Example 50, N-(3,5-Difluoropyridin-4-yl)-4-(2,2,6-trimethylchroman-7-yl)benzamide] yielded an IC50 of under 25 nM. CC1(C)C=C(c2ccc(NC(=O)c3c(F)cccc3F)cc2)c2ccccc2O1 [Example 79, N-(4-(2,2-Dimethyl-2H-chromen-4-yl)phenyl)-2,6-difluorobenzamide] showed an IC50 of 25 to 50 nM. With Cc1c(-c2ccc(NC(=O)c3c(F)cccc3F)cc2)ccc2c1OC1(CCC1)CC2=O [Example 19, 2,6-Difluoro-N-(4-(8-methyl-4-oxospiro[chroman-2,1′-cyclobutan]-7-yl)phenyl)benzamide] the IC50 was 100 to 500 nM. O=C(Nc1ccc(C2CC3(CCC3)Oc3ccccc32)cc1)c1c(F)cccc1F (stereo not drawn) [Example 69, 2,6-Difluoro-N-(4-(spiro[chroman-2,1′-cyclobutan]-4-yl)phenyl)benzamide] was tested, and the IC50 was 100 to 500 nM. Work on Cc1cc2c(cc1-c1ccc(NC(=O)c3c(F)cccc3F)cc1)C(=O)CC1(CCC1)O2 [Example 17, 2,6-Difluoro-N-(4-(7-methyl-4-oxospiro[chroman-2,1′-cyclobutan]-6-yl)phenyl)benzamide] yielded an IC50 of 50 to 100 nM. For Cc1cc2c(cc1-c1ccc(C(=O)Nc3c(Cl)cncc3Cl)cc1)OC1(CCC1)CC2 [Example 67, N-(3,5-Dichloropyridin-4-yl)-4-(6-methylspiro[chroman-2,1′-cyclobutan]-7-yl)benzamide], the IC50 was 25 to 50 nM. With Cc1cc2c(cc1-c1ccc(NC(=O)c3c(F)cccc3F)cn1)OC(C)(C)CC2=O [Example 27, 2,6-Difluoro-N-(6-(2,2,6-trimethyl-4-oxochroman-7-yl)pyridin-3-yl)benzamide] the IC50 was 25 to 50 nM. In the case of Cc1cccc2c1OC(C)(C)C=C2c1cnc(NC(=O)c2c(F)cccc2F)cn1 [Example 89, 2,6-Difluoro-N-(5-(2,2,8-trimethyl-2H-chromen-4-yl)pyrazin-2-yl)benzamide], the IC50 was under 25 nM. Cc1cc2c(cc1-c1ccc(NC(=O)c3c(F)cccc3F)nc1)OC1(COC1)CC2=O [Example 124, 2,6-Difluoro-N-(5-(6-methyl-4-oxospiro[chroman-2,3′-oxetan]-7-yl)pyridin-2-yl)benzamide] gave an IC50 of 25 to 50 nM. With COC(=O)C1(C)CC(=O)c2cc(C)c(-c3cnc(NC(=O)c4c(F)cccc4F)cn3)cc2O1 (stereo not drawn) [Example 45, Methyl 7-(5-(2,6-difluorobenzamido)pyrazin-2-yl)-2,6-dimethyl-4-oxochroman-2-carboxylate] the IC50 was 100 to 500 nM. Work on CCc1cc2c(cc1-c1cnc(NC(=O)c3c(F)cccc3F)cn1)OC(C)(C)CC2=O [Example 5, N-(5-(6-Ethyl-2,2-dimethyl-4-oxochroman-7-yl)pyrazin-2-yl)-2,6-difluorobenzamide] yielded an IC50 of under 25 nM. Molecule Cc1cc2c(cc1-c1ccc(NCc3c(F)cccc3F)nc1)OC(C)(C)CC2=O [Example 35, 7-(6-((2,6-Difluorobenzyl)amino)pyridin-3-yl)-2,2,6-trimethylchroman-4-one] has an IC50 of under 25 nM.

From patent US9790231B2 (LUPIN LIMITED, priority 2013, dated 2017)
